One assay has as its system mushroom tyrosinase. Briefly: Mushroom tyrosinase inhibition assay. It is filed as biochemical. The following applies: for IC50: mean ± SEM of three experiments. As for the experimental part: As mushroom tyrosinase is commercially available and relatively cheap, it is used as a tool for the identification of novel tyrosinase inhibitors. Here, we examined the tyrosinase inhibitory activities of the 14 BABT derivatives against mushroom tyrosinase in the presence of L-tyrosine or L-dopa as substrates.
Mushroom tyrosinase inhibitory activities of BABT derivatives were determined as described previously, with minor modifications. L-Tyrosine and L-dopa were used as substrates to evaluate the enzyme activity. […] Assay mixtures were incubated at 37 °C for 30 min, and dopachrome amounts synthesized were determined by measuring the optical density of each well at 475 nm using a microplate reader (VersaMax; Molecular Devices, Sunnyvale, CA, USA).

The nature of assay [1]: Peroxynitrite scavenging assay. The following applies: 20 µM; SIN-1 as generator; DHR123 probe. As for the experimental part:
The effects of the BABT derivatives on peroxynitrite scavenging activities were also examined using SIN-1 as an RNS generator and dihydrorhodamine (DHR123) as an ROS indicator. DHR123 was converted to fluorescent rhodamine 123 by peroxynitrite generated by SIN-1. Therefore, the peroxynitrite scavenging activities of 1–14 were assessed by measuring the fluorescence of rhodamine 123. BABT derivatives and penicillamine, the positive control, were used at a concentration of 20 µM.
The peroxynitrite scavenging activities of the BABT derivatives were assessed using the method developed by Kooy, involving the monitoring of highly fluorescent rhodamine 123, which was rapidly produced from non-fluorescent DHR123 in the presence of peroxynitrite. Rhodamine buffer (pH 7.4) was composed of 50 mM sodium phosphate dibasic, 50 mM sodium phosphate monobasic, 90 mM sodium chloride, 5 mM potassium chloride, and 100 µM DTPA. A 10 µL aliquot of BABT derivatives or PCA (final concentration: 20 µM) was seeded in a black 96-well plate. Then, 10 µL of SIN-1 (10 µM) was added to induce radical species generation and mixed with 180 µL of rhodamine buffer. Fluorescence intensity was measured at emission and excitation wavelengths of 535 and 485 nm, respectively, using a fluorescence microplate reader (Berthold Technologies GmbH & Co.). PCA was used as the positive control.

Assay [2] can be described thus: SIN-1-induced ROS scavenging assay. The following applies: 20 µM; SIN-1 as ROS generator; DCFH-DA probe. The source says:
The scavenging activities of the BABT derivatives 1–14 against ROS and peroxynitrite (ONOO^−) were investigated because the antioxidant activities of the compounds may modulate melanogenesis. To measure the ROS scavenging activities of BABT derivatives, 2′,7′-dichlorodihydrofluorescein diacetate (DCFH-DA) and 3-morpholinosydnonimine (SIN-1) were used as a fluorogenic probe and ROS generator, respectively. The reaction of DCFH-DA with esterase produces 2′,7′-dichlorodihydrofluorescein (DCFH), which generates the fluorescent compound 2′,7′-dichlorofluorescein (DCF) by reacting with ROS produced by SIN-1. Therefore, ROS scavenging activities were determined by measuring the DCF fluorescence remaining after the BABT derivatives scavenged the ROS generated by SIN-1. […] BABT derivatives and Trolox, the positive control, were used at a concentration of 20 µM.
The ROS scavenging activities of the BABT derivatives were measured using an oxidant-sensitive fluorescent probe. Derivatives or Trolox (10 µL; final concentration: 20 µM) were seeded in a black 96-well plate. Then, 10 µL of SIN-1 (10 µM) was added to induce radical species generation and mixed with 180 µL of sodium phosphate buffer (pH 7.4) containing 12.5 µM DCF-DA and 600 units of esterase. Fluorescence intensity was measured at emission and excitation wavelengths of 535 and 485 nm, respectively, using a fluorescence microplate reader (Berthold Technologies GmbH & Co., Wien, Austria). Trolox was used as the positive control.

Assay [3] is described as follows: DPPH radical scavenging assay. Particulars: test samples 500 µM; DPPH 0.18 mM; 30 min in the dark. The method, then: DPPH is a light-sensitive compound containing free radicals. The DPPH assay is one of the most common methods for evaluating the antioxidant activity of a compound. The effects of BABT derivatives on DPPH radical scavenging activities were evaluated using L-ascorbic acid as a positive reference control. DPPH radical scavenging activities were measured after leaving the mixed samples (test samples of 500 µM plus DPPH solution of 0.18 mM) in the dark for 30 min. To determine the radical scavenging activities, the absorbance of the mixed samples was measured at 517 nm.
According to previously described methods, with minor modifications, the DPPH radical scavenging activities of BABT derivatives 1–14 were measured. A DPPH (0.2 mM) and methanol solution (180 µL) was mixed with 20 µL of a DMSO solution containing 5 mM BABT derivative, or with 20 µL of an aqueous solution of 5 mM L-ascorbic acid, in each well of a 96-well plate and kept at ambient temperature in the dark for 30 min. The optical density of each well was measured at 517 nm using a microplate reader (VersaMax; Molecular Devices). L-Ascorbic acid was used as a positive reference control, and the DPPH radical scavenging abilities of BABT derivatives were compared with those of L-ascorbic acid. All experiments were performed independently, thrice.

For another assay, the system named is B16F10 cells. In words: Measurement of extracellular and intracellular melanin levels. Format: cell-based, murine. Particulars: 20 µM; α-MSH plus IBMX stimulated B16F10 cells; 72 h. As for the experimental part:
To investigate the effects of derivative 8 on extracellular and intracellular melanin levels in B16F10 cells, the cells were treated with various concentrations (5, 10, and 20 µM) of derivative 8 for 1 h, in addition to co-treatment with α-MSH (0.5 µM) and 3-isobutyl-1-methylxanthine (IBMX; 200 µM) to enhance melanin biosynthesis in B16F10 cells. After 72 h of incubation, the effects of 8 on extracellular and intracellular melanin levels were determined by measuring the melanin absorbance in the culture media and cell lysates, respectively, at 405 nm using a microplate reader.
The effect of 8 on melanin production was measured using a standard melanin content assay, with minor modifications. Briefly, B16F10 cells were seeded at a density of 1 × 10^5 cells per well and allowed to adhere to the well bottoms for 24 h under the conditions used for cell cultures. […] After incubation for 72 h at 37 °C in a 5% CO2 atmosphere, melanin levels were determined. To measure the extracellular melanin levels, the absorbance of each well of the culture medium was measured at 405 nm. […] Cultured cells were washed twice with PBS, and the pellets obtained were dissolved using 1 N NaOH solution (200 µL, 10% DMSO) at 60 °C for 1 h. Cell lysates were transferred to the wells of a 96-well plate, and the optical density of melanin dissolved in each well was measured at 405 nm in aqueous DMSO solution using a microplate reader (VersaMax; Molecular Devices).

Setting [4] is: substrate L-dopa, read-out: IC50 (µM) L-Dopa.
Setting [5] is: substrate L-tyrosine, read-out: IC50 (µM) L-Tyrosine.

Structures are written as SMILES. Read-outs that look alike come from different tables or passages of the source.

The term IC50 denotes the concentration needed to halve the response being measured.

Consider `O=C1N=C(NCc2ccccc2)S/C1=C\c1ccc(O)cc1` [Compound 1, (Z)-2-(benzylamino)-5-(4-hydroxybenzylidene)thiazol-4(5H)-one], for which the “fold higher IC50 value with L-dopa than with L-tyrosine” value with mushroom tyrosinase (L-dopa versus L-tyrosine as substrate) stood at 2 fold. Moreover, the IC50 on mushroom tyrosinase (setting [4]) was found to be 65.1 ± 8.29 µM; on mushroom tyrosinase (setting [5]), 27.5 ± 2.93 µM. Besides, the “peroxynitrite scavenging activity (in words)” value in assay [1] is “strong ROS and peroxynitrite scavenging activities”. Besides, the “ROS scavenging activity (in words)” value in assay [2] is given as “strongly reduced the ROS levels enhanced by SIN-1”.
For `COc1cc(/C=C2\SC(NCc3ccccc3)=NC2=O)cc(OC)c1O` [Compound 12, (Z)-2-(benzylamino)-5-(4-hydroxy-3,5-dimethoxybenzylidene)thiazol-4(5H)-one], in assay [3], the “DPPH radical scavenging activity, % inhibition” value amounted to 62%. Also, the IC50 on mushroom tyrosinase (setting [4]) is more than 300 µM; at mushroom tyrosinase (setting [5]) it was 166 ± 8.04 µM.
Take `CC(C)(S)[C@@H](N)C(=O)O` [penicillamine, reference compound]: in assay [1], the “peroxynitrite scavenging activity (in words)” value is reported as “significantly reduced the peroxynitrite levels increased by SIN-1 treatment”.
On to `O=C1N=C(NCc2ccccc2)S/C1=C\c1ccc(F)cc1F` [Compound 3, (Z)-2-(benzylamino)-5-(2,4-difluorobenzylidene)thiazol-4(5H)-one], for which the IC50 on mushroom tyrosinase (setting [4]) and on mushroom tyrosinase (setting [5]) was more than 300 µM each time. Further, the “ROS scavenging activity (in words)” value in assay [2] was “moderate ROS scavenging activities”.
For the compound `O=c1cc(CO)occ1O` [kojic acid, Kojic acid, reference compound], in the assay on B16F10 cells, the “extracellular melanin levels compared to untreated control” value came to 1.5 fold and the “intracellular melanin levels compared to untreated control” value is recorded as 1.9 fold.
Regarding `O=C1O[C@H]([C@@H](O)CO)C(O)=C1O` [L-Ascorbic acid, L-ascorbic acid, reference compound], the “DPPH radical scavenging activity, % inhibition” value in assay [3] stood at 97%.
With `COc1ccc(/C=C2\SC(NCc3ccccc3)=NC2=O)cc1` [Compound 2, (Z)-2-(benzylamino)-5-(4-methoxybenzylidene)thiazol-4(5H)-one], the “fold decrease of tyrosinase inhibitory activity versus derivative 1” value in the assay with mushroom tyrosinase (substrate L-dopa) amounted to 3.7 fold. In addition, the IC50 at mushroom tyrosinase (setting [4]) turned out to be 239.4 ± 2.38 µM; on mushroom tyrosinase (setting [5]) it was 126 ± 10 µM. The “fold lower tyrosinase inhibitory activity than derivative 1” value in the assay on mushroom tyrosinase (substrate L-tyrosine) was determined as 4.6 fold. In assay [2], the “ROS scavenging activity (in words)” value is “strongly reduced the ROS levels enhanced by SIN-1”.
In the case of `COc1ccc(/C=C2\SC(NCc3ccccc3)=NC2=O)c(OC)c1` [Compound 10, (Z)-2-(benzylamino)-5-(2,4-dimethoxybenzylidene)thiazol-4(5H)-one], the IC50 on mushroom tyrosinase (setting [4]) was 214 ± 6.29 µM; at mushroom tyrosinase (setting [5]), 293 ± 13.1 µM. In the assay with mushroom tyrosinase (substrate L-tyrosine), the “mushroom tyrosinase inhibitory activity (in words)” value is given as “little-to-no mushroom tyrosinase inhibitory activity”.
`COc1cc(/C=C2\SC(NCc3ccccc3)=NC2=O)cc(OC)c1OC` [Compound 14, (Z)-2-(benzylamino)-5-(3,4,5-trimethoxybenzylidene)thiazol-4(5H)-one]: the IC50 at mushroom tyrosinase (setting [4]) is 231 ± 7.43 µM; on mushroom tyrosinase (setting [5]), 192 ± 9.04 µM. Moreover, the “mushroom tyrosinase inhibitory activity (in words)” value in the assay with mushroom tyrosinase (substrate L-tyrosine) is “little-to-no mushroom tyrosinase inhibitory activity”.
For `CC(C)(C)c1cc(/C=C2\SC(NCc3ccccc3)=NC2=O)cc(C(C)(C)C)c1O` [Compound 13, (Z)-2-(benzylamino)-5-(3,5-di-tert-butyl-4-hydroxybenzylidene)thiazol-4(5H)-one], the concentration for half-maximal inhibition (IC50) at mushroom tyrosinase (setting [4]) was more than 300 µM; on mushroom tyrosinase (setting [5]), 137 ± 10.7 µM.
As for `CCOc1cc(/C=C2\SC(NCc3ccccc3)=NC2=O)ccc1O` [Compound 6, (Z)-2-(benzylamino)-5-(3-ethoxy-4-hydroxybenzylidene)thiazol-4(5H)-one], the IC50 at mushroom tyrosinase (setting [4]) was 248 ± 11.5 µM; on mushroom tyrosinase (setting [5]), 199 ± 8.57 µM.
As for `COc1ccc(/C=C2\SC(NCc3ccccc3)=NC2=O)cc1OC` [Compound 11, (Z)-2-(benzylamino)-5-(3,4-dimethoxybenzylidene)thiazol-4(5H)-one], the IC50 at mushroom tyrosinase (setting [4]) and at mushroom tyrosinase (setting [5]) was more than 300 µM each time. The “mushroom tyrosinase inhibitory activity (in words)” value in the assay with mushroom tyrosinase (substrate L-tyrosine) was “little-to-no mushroom tyrosinase inhibitory activity”.
For `COc1cc(/C=C2\SC(NCc3ccccc3)=NC2=O)ccc1O` [Compound 5, (Z)-2-(benzylamino)-5-(4-hydroxy-3-methoxybenzylidene)thiazol-4(5H)-one], the results for the IC50 at mushroom tyrosinase (setting [4]) and on mushroom tyrosinase (setting [5]) were more than 300 µM and 148.3 ± 1.12 µM, respectively. Besides, in assay [2], the “ROS scavenging activity (in words)” value was “moderate ROS scavenging activities”.
Turning to `O=C1N=C(NCc2ccccc2)S/C1=C\c1ccc(F)c(F)c1` [Compound 4, (Z)-2-(benzylamino)-5-(3,4-difluorobenzylidene)thiazol-4(5H)-one], the IC50 was more than 300 µM on mushroom tyrosinase (setting [4]) and 289 ± 14.7 µM at mushroom tyrosinase (setting [5]). Besides, in assay [2], the “ROS scavenging activity (in words)” value is “moderate ROS scavenging activities”.
